Measurements: patent EP4799647A1, “CAMPTOTHECIN DRUG CONJUGATE, AND PREPARATION METHOD THEREFOR AND USE THEREOF” (Shanghai Qilu Pharmaceutical Research and Development …, priority 2023, dated 2025)

Columns and labels:
Assay in all cases: Cell inhibitory activity experiment (CellTiter-Glo, 72 hours)
Type in all cases: cell-based
[1] = system: A549; details: Homo sapiens; A549, 72 hours
Protocol: (§1) • a) All cell lines were cultured in complete medium at 37 °C under 5% CO2. • b) Cells in logarithmic growth phase were collected and counted by a […]. The cell viability was detected by trypan blue exclusion method, and guaranteed to be over 90%. • c) The cell density was adjusted with a complete medium. Subsequently, 80 µL of cell suspension was seeded into each well of a 96-well cell culture plate according to 3000 cells per well. • d) The cells in the 96-well plate were cultured at 37°C under 5% CO2. • e) 10× drug solution was prepared. […] The working concentration of the test compound was 5 µM. For the test group, 10 µL of serially diluted test compound was transferred into the corresponding experimental well of 96-well cell culture plate, and added with 10 µL of diluent containing an equal amount of DMSO (1%), and three replicate wells were set up for each drug concentration. Control wells were added with corresponding volumes of diluent. • f) The cells in the 96-well plate added with the drug were continuously cultured at 37°C under 5% CO2 for 72 hours. • g) CTG reagent (CellTiter-Glo® Luminescent Cell Viability Assay, purchased from Promega, Cat. No. G7571) was thawed, and the cell culture plate was equilibrated to room temperature for 30 minutes. • h) 100 µL of CTG solution was added into each well. • i) The plate was shaken on an orbital shaker for 5 minutes to induce cell lysis. • j) The cell culture plate was placed at room temperature for 20 minutes to stabilize luminescent signals. • k) Luminescence intensities were read, and data were collected. • l) The data were analyzed by using GraphPad Prism 7.0 software, non-linear S-curve regression was applied to fit the data for generating dose-response curves, and IC50 values were calculated accordingly. Specific experimental results were shown in Table 4. [formula] Table 4 Cell inhibitory activities of payload compounds in the present invention

[2] = system: SK-OV-3; details: Homo sapiens; SK-OV-3, 72 hours
Protocol: as §1

[3] = system: AsPC-1; details: Homo sapiens, ASPC1; AsPC-1, 72 hours
Protocol: as §1

[4] = system: COLO205; details: Homo sapiens, COLO 205; COLO205, 72 hours
Protocol: as §1

[5] = system: COLO320DM; details: Homo sapiens, COLO 320DM
Protocol: as §1

[6] = system: HT29; details: Homo sapiens, HT-29; HT29, 72 hours
Protocol: as §1

[7] = system: HCT15; details: Homo sapiens, HCT-15; HCT15, 72 hours
Protocol: as §1

| SMILES | IC50 [1] [nM] | IC50 [2] [nM] | IC50 [3] [nM] | IC50 [4] [nM] | IC50 [5] [nM] | IC50 [6] [nM] | IC50 [7] [nM] |
| --- | --- | --- | --- | --- | --- | --- | --- |
| CC[C@@]1(O)C(=O)OCc2c1cc1n(c2=O)Cc2c-1nc1cc(F)c(C)c3c1c2[C@@H](NC(=O)CO)CC3 [DXd] | 104 | 288 | 3100 | 95.5 | 575 | 344 | 889 |
| CC[C@@]1(O)C(=O)OCc2c1cc1n(c2=O)Cc2c-1nc1cc(F)c(F)cc1c2CO [C1-5, (4S)-4-ethyl-8,9-difluoro-4-hydroxy-11-(hydroxymethyl)-3,4,12,14-tetrahydro-1H-pyrano[3', 4':6,7]indolizino[1,2-b]quinolin-3,14-dione] | 21.1 | 79.5 | 1120 | 24.3 | 196 | 144 | 142 |
| CCc1c2c(nc3ccc(O)cc13)-c1cc3c(c(=O)n1C2)COC(=O)[C@]3(O)CC [SN-38] | 66.5 | 168 | > 10000 | 89.6 | 1420 | 287 | 313 |
